Assay results published in patent publication US7887833B2, “Amphiphilic compounds and vesicles liposomes for organ-specified drug targeting” (Ben-Gurion University of the Negev Research and Development …, priority 2001, dated 2011).

How the values were obtained:
Type in all cases: biochemical
[1] = tested on: acetylcholinesterase (ACHE); assay: Competition assay using the Elman's method (acetylthiocholine/DTNB); conditions: acetylthiocholine 1.5 mM, DTNB 0.5 mM, 3 units AChE, phosphate-buffered saline
Procedure: (ii) Competition assay using the Elman's method: Hydrolysis of acetylthiocholine (ATC) releases thiocholine, which reduces 5,5′-dithiobis-2-nitrobenzoate (DTNB) giving rise to a yellow coloring of the solution. […] A series of solutions with varying concentrations of Derivatives 1 and 2 in methanol together with acetylthiocholine (1.5 mM), DTNB (0.5 mM), and with 3 units of acetylcholinesterase (ACHE) in phosphate-buffered saline, was prepared. The rate of appearance of yellow color was determined in each of the reaction mixtures. […] Thus, vesicles prepared from Derivative 1 are expected to disrupt faster than vesicles prepared from Derivative 2, when exposed to cholinesterases.

[2] = tested on: cholinesterases (ChE); assay: pH-stat method: hydrolysis of headgroups by cholinesterases of human serum; conditions: 100 mM solutions diluted 100 times, pH 9.0, human serum 0.1 ml, 15 min
Procedure: The ability of cholinesterases (ChE) to hydrolyze Derivatives 1 and 2 was assessed using two methods:
(i) The pH-stat method: Hydrolysis of the acetylcholine ester headgroups of Derivative 1, as well as of acetylcholine (ACh), by cholinesterases (ChE), releases acetic acid into the solution. Hydrolysis of Derivative 2 by ChE releases choline and a free fatty acid. In both cases, the release of acid results in pH drop. The hydrolysis rate of these compounds can be determined by measuring the amount of NaOH needed to neutralize the acid generated during hydrolysis. Three solutions, 100 mM concentration each of acetylcholine (ACh) in water and of Derivatives 1 and 2 in methanol were prepared, then diluted 100 times with water (10 ml), and their pH was adjusted to pH 9.0 using 0.1M NaOH. The pH was monitored until it remained stable for 10 min (baseline). At this stage, human serum (0.1 ml) containing ChE, was added and each of the solutions was titrated with 0.05M NaOH in order to maintain pH 9.0. The amount of the NaOH needed to maintain constant pH was measured during 15 min. […] Thus vesicles prepared from Derivative 1 are expected to disrupt, in presence of ChE, faster than vesicles made from Derivative 2.

[3] = biological target: T1, aromatic L-amino acid decarboxylase (AADC) (Rattus norvegicus, UniProt P14173); assay: Decarboxylation of headgroup by AADC from rat liver homogenate (HPLC, electrochemical detector)
T1 construct: rat liver homogenate served as the source for AADC; from tissue; host or cells: rat liver homogenate
T1 sequence (P14173 1-480): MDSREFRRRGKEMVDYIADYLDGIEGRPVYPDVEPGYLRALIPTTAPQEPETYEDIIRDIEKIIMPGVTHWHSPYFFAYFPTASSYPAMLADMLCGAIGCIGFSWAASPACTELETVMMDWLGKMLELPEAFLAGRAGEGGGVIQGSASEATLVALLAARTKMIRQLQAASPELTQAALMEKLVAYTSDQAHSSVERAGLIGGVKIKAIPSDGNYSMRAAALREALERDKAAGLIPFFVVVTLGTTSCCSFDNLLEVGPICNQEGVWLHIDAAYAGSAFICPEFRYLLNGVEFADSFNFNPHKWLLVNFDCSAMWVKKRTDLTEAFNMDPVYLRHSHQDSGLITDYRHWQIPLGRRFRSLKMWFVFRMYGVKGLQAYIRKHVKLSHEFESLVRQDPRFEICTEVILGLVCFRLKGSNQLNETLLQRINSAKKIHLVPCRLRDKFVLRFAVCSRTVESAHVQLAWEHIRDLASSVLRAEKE
Source text: Derivative 5 contains an aromatic amino acid moiety as a headgroup. This negatively charged headgroup, at physiological pH, may be a suitable substrate for the enzyme aromatic L-amino acid decarboxylase (AADC). Upon exposure to AADC, the headgroup of Derivative 5 should be converted to an amine thus changing the nature of the headgroup (from a carboxyl to amine) in a way that can result in destabilization of vesicles made from Derivative 5.
To test whether Derivative 5 could serve as a substrate for AADC, rat liver homogenate served as the source for AADC and the following experiment was carried out. A methanol solution (0.005 ml) of Derivative 5 was added to a reaction mixture (0.5 ml final volume) containing potassium phosphate (50 mM, pH=7.0), dithiothreitol (1 mM), EDTA (0.2 mM), pyridoxal 5′-phosphate (0.01 mM), pargylin (0.1 mM), and rat liver homogenate adjusted to 5 mg protein. The final concentration of Derivative 5 was 1 mM. The reaction mixture was incubated at 37° C. for 60 min followed by the addition of 0.05 ml perchloric acid (70%) and neutralized by 4M KOH. The mixture was then centrifuged at 20.000 g for 10 min at 4° C. and 0.1 ml of the supernatant was injected into a C18-HPLC column. The presence of the amine, which was formed during the reaction, was determined by electrochemical detector. […]

SMILES | competition with acetylthiocholine for the hydrolyzing enzyme (rate of appearance of yellow color) [1] | hydrolysis rate (NaOH needed to maintain constant pH) [2] | decarboxylation to the amine (HPLC peak) ([3]; 1 mM, rat liver homogenate 5 mg protein, 37° C., 60 min) | amine peak in presence of benserazide ([3]; benserazide 5×10^-5 M added to the reaction mixture)
CCCCCC(OC(=O)C[N+](C)(C)CCOC(C)=O)C(O)CC=CCCCCCCCC(=O)NCCNC(=O)CCCCCCCC=CCC(O)C(CCCCC)OC(=O)C[N+](C)(C)CCOC(C)=O (stereo not shown) [Derivative 1] | higher extent | faster hydrolysis | – | –
CCCCCC(OC(=O)CNc1ccc(CC(N)C(=O)O)cc1)C(O)CC=CCCCCCCCC(=O)NCCNC(=O)CCCCCCCC=CCC(O)C(CCCCC)OC(=O)CNc1ccc(CC(N)C(=O)O)cc1 (stereo not shown) [Derivative 5] | – | – | decarboxylated | not detectable
